Data set [1] can be described thus: Human HepG2 cell viability assay in 384 well format. As to conditions: HepG2 cells, read-out: Inhibition. Set-up: dose 125 nL, time 70.5 hour; concentration not given beside the values. Format: toxicity, cell-based.
A short description of data set [2]: Human HepG2 cell viability dose-response assay. Type of data set: toxicity, cell-based.

Molecules are shown by their SMILES. “And” between values parts separate entries of the source, which are not always exact repeats. Equal entries are not always repeated.

In the case of `C/N=C1/c2cc3cc(OC)ccc3n2CCN1Cc1ccccc1.Cl`, the cytotoxicity at 70.5 h in data set [1] was 61.3%. Moreover, in data set [2], the BOTTOM is -4.849 and -8.854; the HILLSLOPE was 2.411 and 1.684; the TOP was 87.09 and 100; the pXC50 was 5.148 and 5.086.
As for `O=C(Nc1nccs1)c1csc(NC2CCCC2)n1`, in data set [1], the cytotoxicity at 70.5 h is 62%. In data set [2], the BOTTOM is -10.16 and -7.056; the HILLSLOPE is 0.9548 and 1.411; the TOP was found to be 100; the pXC50 was 4.822 and 4.869.
For `CCCc1cc(=O)[nH]c(-n2nc(C3CC3)cc2N)n1`, in data set [1], the cytotoxicity at 70.5 h was determined as 65.9%. Further, in data set [2], the BOTTOM was 0, the HILLSLOPE is recorded as 0, the TOP was found to be 0 and the pXC50 is recorded as less than 4.53.
For `c1ccc(OCC2CC3(CCN(CC4CCOCC4)CC3)CO2)nc1` (stereo not given), the cytotoxicity at 70.5 h in data set [1] came out at 62.9%. In data set [2], this compound showed a BOTTOM of 0, an HILLSLOPE of 0, a TOP of 0 and a pXC50 of less than 4.53.
As to `CCn1cc(CN(C)S(=O)(=O)c2ccc(Cl)cc2)cn1`, the cytotoxicity at 70.5 h in data set [1] came out at 108%. In data set [2], the BOTTOM was 0, the HILLSLOPE worked out at 0, the TOP is 0 and the pXC50 is less than 4.53.
Consider `c1ccc(CCN2CCCC2c2cccc(Nc3nccs3)n2)cc1` (stereo not given), for which the cytotoxicity at 70.5 h in data set [1] is 70.3%. In data set [2], the BOTTOM was -11.18 and -9.985; the HILLSLOPE is 1.416 and 1.359; the TOP is 100; the pXC50 was 5.661 and 5.625.
For the compound `Cc1cnc(Nc2cccc(C3CCCN3Cc3cn(C)nc3C)n2)s1` (stereo not given), the cytotoxicity at 70.5 h in data set [1] is 76%. Further, in data set [2], the BOTTOM is -7.108 and -9.894; the HILLSLOPE was 1.821 and 1.15; the TOP is 87.64 and 100; the pXC50 is 5.777 and 5.662.
Regarding `Oc1cc(C2CCCN(Cc3cccs3)C2)nc(-c2ccccn2)n1` (stereo not given), the cytotoxicity at 70.5 h in data set [1] is 60.4%. Besides, in data set [2], the BOTTOM is -7.306 and -6.343; the HILLSLOPE was 1.489 and 1.356; the TOP stood at 100; the pXC50 is 4.83 and 4.808.
As for `Cn1nccc1CN1CCOC(c2cccc(Nc3ccccn3)n2)C1` (stereo not given), the cytotoxicity at 70.5 h in data set [1] turned out to be 84.1%. Moreover, in data set [2], the HILLSLOPE is 6.527 and 3.177; the TOP was 100.3 and 104.2; the pXC50 was 5.026 and 5.036.
On to `Cc1ccccc1CN1CCCC1c1cccc(Nc2nccs2)n1` (stereo not given), for which the cytotoxicity at 70.5 h in data set [1] was 70.5%. In data set [2], the BOTTOM is -34.71 and -42.55; the HILLSLOPE was 0.815 and 0.7597; the TOP was 100; the pXC50 is 6.34 and 6.398.
As for `Oc1cc(C2CCCCN2Cc2cccs2)nc(-c2ccccn2)n1` (stereo not given), the cytotoxicity at 70.5 h in data set [1] was found to be 64.3%. Moreover, in data set [2], the BOTTOM was -3.23 and -7.213; the HILLSLOPE was 1.278 and 1.267; the TOP was 100; the pXC50 is 5.076 and 5.09.
Consider `CNc1cc(C2CN(Cc3scnc3C)CCO2)nc(C)n1` (stereo not given), for which, in data set [1], the cytotoxicity at 70.5 h was 98.7%. Moreover, in data set [2], the HILLSLOPE was 1.929 and 1.812; the TOP is 107.3 and 109.8; the pXC50 is 4.988 and 5.003.
Consider `CCc1ncc2c(n1)CN(Cc1ncc(C(C)(C)C)o1)CC2`, for which the cytotoxicity at 70.5 h in data set [1] was found to be 60.9%. In data set [2], this compound came in with a BOTTOM of 0, an HILLSLOPE of 0, a TOP of 0 and a pXC50 of less than 4.53.
Take `CN(CCC(F)(F)F)C(=O)C1CSCN1C(=O)C(C)(C)C` (stereo not given): the cytotoxicity at 70.5 h in data set [1] stood at 100%. In data set [2], this compound had a BOTTOM of 0, an HILLSLOPE of 0, a TOP of 0 and a pXC50 of less than 4.53.
As to `NC(CC1CCCC1)c1ccc(Oc2ccccc2)cc1` (stereo not given), the cytotoxicity at 70.5 h in data set [1] turned out to be 99%. Further, in data set [2], the BOTTOM is -5.453 and -5.719; the HILLSLOPE was 5.268 and 5.002; the TOP is 102.6 and 103.1; the pXC50 is 5.226 and 5.224.
Regarding `O=C(CN1CCc2sccc2C1)Nc1ccnc2ccnn12`, in data set [1], the cytotoxicity at 70.5 h is 74.2%. For the same compound, in data set [2], the BOTTOM is -24.28 and -16.58; the HILLSLOPE is 0.9799 and 1.026; the TOP is listed as 100; the pXC50 was 5.87 and 5.888.
With `CNc1nc(C)cc(NCc2cc(C)cc3c(C)c(C)[nH]c23)n1`, the cytotoxicity at 70.5 h in data set [1] is 98.8%. In addition, in data set [2], the BOTTOM was -7.457 and -8.772; the HILLSLOPE is 3.23 and 3.681; the TOP was 100 and 99.18; the pXC50 is 5.482 and 5.451.
Take `CC(C)(C)c1nccc(C2(c3ccccc3Cl)CCNCC2)n1`: the cytotoxicity at 70.5 h in data set [1] was determined as 78.4%. Also, in data set [2], the BOTTOM is 9.625 and 4.047; the HILLSLOPE was 4.667 and 5.549; the TOP was 104.8 and 103.4; the pXC50 was 5.031 and 5.028.
`N#Cc1ccc(NCCNc2ccc(C(F)(F)F)cn2)nc1`: in data set [1], the cytotoxicity at 70.5 h was determined as 101%. Moreover, in data set [2], the BOTTOM is -5.895 and -10.21; the HILLSLOPE was 4.246 and 4.413; the TOP is 101.3 and 101.1; the pXC50 is 5.913 and 5.918.
In the case of `CC(C)Cc1ccc(S(=O)(=O)Nc2ccc(=O)n(C)c2)cc1`, the cytotoxicity at 70.5 h in data set [1] came out at 71.6%. In data set [2], this compound had a BOTTOM of 0, an HILLSLOPE of 0, a TOP of 0 and a pXC50 of less than 4.53.
On to `O=C(CCCc1ncc(-c2ccccc2)o1)N1CCN(CCO)CC1`, for which the cytotoxicity at 70.5 h in data set [1] was -7.53%.
Still for that read-out and setting: in the case of `Cc1cc(C2CCCN(CCCS(=O)(=O)c3ccccc3)C2)n[nH]1` (stereo not given) it was -14%; in that of `O=C(c1cccc2[nH]ncc12)N1CCCC1c1noc(C2CC2)n1` (stereo not given), -18.3%; in that of `Cc1nccn1CC1CCCN1S(=O)(=O)Cc1ccccc1F` (stereo not given), -7.26%.
For `Cc1nn(C)c(Cl)c1C(=O)NCC(c1ccsc1)N(C)C` (stereo not given), the cytotoxicity at 70.5 h in data set [1] was -21.3%.
The same measure, in the same setting: the result for `CCC(CC)C(CNC(=O)Nc1ccc(C)cc1)N1CCOCC1` (stereo not given) reads -15.7%.
Still for that read-out and setting: the result for `Cc1ccc(CNC(=O)NCc2csc(C)n2)cn1` reads -21.2%.
Take `Cc1ccc(CNC(=O)CCSCc2csc(C)n2)cn1`: the cytotoxicity at 70.5 h in data set [1] is -11.2%.
Regarding `N#Cc1ccccc1N1CCCN(C(=O)CCn2cccn2)CC1`, in data set [1], the cytotoxicity at 70.5 h is -23%.
Still for that read-out and setting: in the case of `Cc1cc(CN2CCC(c3ccnn3CCO)CC2)no1` it was -15.5%.
On to `Cc1noc2ncc(C(=O)N3CCCC3c3ccncc3)cc12` (stereo not given), for which the cytotoxicity at 70.5 h in data set [1] is 33.6%.
Turning to `N#Cc1ccccc1N1CCCN(C(=O)CCc2nccs2)CC1`, the cytotoxicity at 70.5 h in data set [1] is -21.6%.
Same read-out and setting: the result for `Cn1cc(CCNC(=O)NCc2nnc3n2CCC3)cn1` reads -22.4%.
As to `NC(=O)C1CCCN(C(=O)c2cnc3c(cnn3C3CCCC3)c2)C1` (stereo not given), the cytotoxicity at 70.5 h in data set [1] turned out to be 33%.
On to `OC(CN1CCN(Cc2nnc(C3CC3)o2)CC1)c1ccccc1` (stereo not given), for which the cytotoxicity at 70.5 h in data set [1] was -20.3%.
As to `Cc1cnn(CC2CCCN2CCc2nc3ccccc3c(=O)[nH]2)c1` (stereo not given), the cytotoxicity at 70.5 h in data set [1] was determined as 0.164%.
On the same count and under the same terms, in the case of `Cc1cnn(CC2CCCN2C(=O)Cc2n[nH]c3ccccc23)c1` (stereo not given) it was -14.5%; in that of `Cc1cccc(NC2CCN(C(=O)Nc3cc(C)on3)CC2)n1`, -14.3%.
For the compound `CC(O)CN1CCN(C(=O)c2cccn2Cc2ccncc2)CC1` (stereo not given), the cytotoxicity at 70.5 h in data set [1] is -16.4%.
On the same count and under the same terms, the result for `CCC(CC)C(O)CNC(=O)Nc1cc(C)nn1C` (stereo not given) reads -17.8%.
On the same count and under the same terms, the result for `Cc1cnn(CC2CCCCN2Cc2nc(N)c3ccccc3n2)c1` (stereo not given) reads -6.17%; that for `Cc1cnn(CC2CCCN2C(=O)c2cccc(-n3cnnn3)c2)c1` (stereo not given), -28.5%; that for `Cc1nccn1CC1CCCN1S(=O)(=O)Cc1ccccc1` (stereo not given), -22.1%.
Same read-out and setting: in the case of `Fc1cccc(-n2ccc(CN3CCCCC3Cn3cncn3)n2)c1` (stereo not given) it was -13.3%.
Take `CN(Cc1nc(C2CC2)no1)C1CCCN(c2cccnn2)C1` (stereo not given): the cytotoxicity at 70.5 h in data set [1] is -19.7%.
The same measure, in the same setting: in the case of `Cc1cnn(CC2CCCN2C(=O)c2cccc(CC#N)c2)c1` (stereo not given) it was -22%.
For the compound `Cl.Cn1ccnc1N1CCN(C(=O)Cc2ccc(F)cc2)CC1`, in data set [1], the cytotoxicity at 70.5 h turned out to be 75%. Besides, in data set [2], the BOTTOM is recorded as 0, the HILLSLOPE was 0, the TOP is on record as 0 and the pXC50 is listed as less than 4.53.
With `COc1ccc(C)cc1CN1CCC(c2cc3ncccc3cn2)CC1.Cl`, the cytotoxicity at 70.5 h in data set [1] amounted to 105%. Moreover, in data set [2], the BOTTOM is -3.004 and -4.306; the HILLSLOPE is 10.96 and 6.205; the TOP is 101.8 and 102.1; the pXC50 is 5.072 and 5.187.
With `Cl.Cl.Clc1cccc(C[C@@H]2NCCC[C@@H]2Nc2ccccc2)c1`, the cytotoxicity at 70.5 h in data set [1] was found to be 104%. In data set [2], the BOTTOM was -6.539 and -3.827; the HILLSLOPE is 13.96 and 17.86; the TOP turned out to be 101.8; the pXC50 is 5.306 and 5.329.
`O=C(O)C(F)(F)F.O=C1COC2(CCN(CC3CCC3)CC2)CN1c1cncnc1`: the cytotoxicity at 70.5 h in data set [1] is 61.5%. In data set [2], this compound had a BOTTOM of 0, an HILLSLOPE of 0, a TOP of 0 and a pXC50 of less than 4.53.
For the compound `Cc1c(C)c2c(c(C)c1O)CC[C@](C)(C(=O)O)O2` [(R)-TROLOX], the cytotoxicity at 70.5 h in data set [1] was -0.808%.

Values taken from ChEMBL document CHEMBL3507680, “University of Dundee, Gates Library screen for HepG2 cell viability”.
